We go through one compound from US20160176855A1, “Novel Sterically Hindered Cyclic Amines” (CLARIANT INTERNATIONAL LTD, priority 2013, published 2016).

The nature of the data set: Solubility in solvents. In kind it is physicochemical.

Turning to `CC1(C)CC(NC(=O)c2ccc(C(=O)NC3CC(C)(C)NC(C)(C)C3)o2)CC(C)(C)N1` [Example 2, N,N′-bis(2,2,6,6-tetramethyl-4-piperidinyl)-2,5-furandicarboxamide], the Solubility entry (in DMF) was “soluble”; the Solubility entry (in ethanol) is recorded as “soluble”; the Solubility entry (in hexane) is “insoluble”; the Solubility entry (in methanol) is given as “soluble”; the Solubility entry (in water) is on record as “insoluble”.
